The target of test [1] is T1, KRas G12D (Homo sapiens, UniProt P01116, G12D). In words: KRas G12D Binding Assay (TR-FRET displacement of labeled tracer). Further details: corresponding to amino acids 1:169, produced at Array BioPharma; biotin (protein is biotinylated). To be noted: TR-FRET displacement of Cy5 labelled tracer, biotinylated GDP-loaded KRAS G12D (aa 1:169), 60 minute incubation at 22° C. The procedure, abridged: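 Biotinylated GDP-loaded human KRAS G12D (aa 1–169) incubated with Cy5 tracer, Eu-streptavidin and compound (2% DMSO final) in 50 mM HEPES pH 7.5, 5 mM MgCl2, 0.005% Tween-20, 1 mM DTT, 60 min at 22 °C. TR-FRET ratio converted to percent of control; IC50 at 50 POC from 4-parameter logistic fit.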
Target sequence in this assay (P01116 1-169 isoform P01116-2 G12D): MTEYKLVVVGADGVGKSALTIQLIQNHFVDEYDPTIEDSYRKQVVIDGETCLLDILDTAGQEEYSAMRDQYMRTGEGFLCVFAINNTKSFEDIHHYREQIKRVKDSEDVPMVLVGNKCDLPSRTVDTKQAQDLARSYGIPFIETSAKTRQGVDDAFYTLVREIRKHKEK

For test [2], the target named is T1, KRas G12D. In words: KRas G12D Surface Plasmon Resonance (SPR) Binding Assay. The settings on record: Biacore T200, biotinylated Avidin-tagged KRAS protein on SA chip, 20 C, 1:1 binding model. How it is done:
This Example illustrates that exemplary compounds of the present invention bind to KRas G12D as measured by surface plasmon resonance (SPR). Briefly, 1 L of 1.05×HBS-Mg buffer (262.5 mM BioUltra Hepes, pH 7.5, 157.5 mM NaCl, 105 mM MgCl2, 0.525 mM TCEP, […] Brij-35) was prepared and filter sterilized using a 0.22 μm bottle top filter. Approximately 50 mL of 1.05×HBS-Mg buffer was removed and saved for future dilutions. A 50 mL aliquot of DMSO (Sigma Aldrich DMSO Lot. #SHBK2079) was added and continued to stir for 10 minutes, creating the final 1.0×HBS-Mg buffer (250 mM BioUltra Hepes pH 7.5, 150 mM NaCl, 100 mM MgCl2, 0.5 mM TCEP, 0.03% Brij-35). Biacore T200 instrument was primed using 1.0×HBS-Mg buffer before docking a GE Streptavidin (SA) chip and then primed two additional times prior to beginning the immobilization step. All immobilized protein mixtures were created using 3-5 mg/mL Biotinylated Avidin-tagged KRAS protein using the following immobilization settings: SA chip type, 1 flow cells per cycle, 720 second contact time, and 5 μL/min flow rate. Normalization of the detector was also performed during the immobilization step using the GE BiaNormalize solution. All compounds were diluted to 10 mM in 100% DMSO prior to being diluted 20× in 1.05× buffer. Another 10× dilution was created using 1.0× buffer prior to performing a series of 3× dilutions to create a compound concentration curve using the following assay settings: 20 C analysis temperature, General Settings=10 Hz data collection rate and multi-detection; Assay Steps=all set to LMW kinetics; Cycle Types=LMW kinetics (60s contact time, 120s dissociation time, 100 μL/min flow rate, extra wash after injection with 50% DMSO, flow path 1,2,3,4); Flow path detection=2-1, 4-3). Data evaluation was performed using the Biacore T200 Evaluation software and data fit to 1:1 binding model.
Target sequence in this assay (P01116 1-188 isoform P01116-2 G12D): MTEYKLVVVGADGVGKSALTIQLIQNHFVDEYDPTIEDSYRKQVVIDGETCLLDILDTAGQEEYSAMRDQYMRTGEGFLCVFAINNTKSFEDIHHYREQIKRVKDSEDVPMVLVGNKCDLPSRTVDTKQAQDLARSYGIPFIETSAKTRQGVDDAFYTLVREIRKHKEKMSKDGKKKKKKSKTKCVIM

For test [3], the system named is KRas G12D-mediated Phosphorylation of ERK. Description: Inhibition of KRas G12D-mediated Phosphorylation of ERK in AGS cells. The class given is cell-based. The settings on record: Homo sapiens; AGS cells expressing G12D, 3 hours, phospho-ERK normalized to GAPDH. The method in brief:
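AGS cells (endogenous KRas G12D) were treated with compounds for 3 h in 0.5% DMSO, then fixed, permeabilized and immunostained. The phospho-ERK (Thr202/Tyr204) signal was normalized to GAPDH in-cell by infrared detection and expressed as % of DMSO control. IC50 came from a 4-parameter fit.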

Molecules are shown by their SMILES.

`Cc1cccc2cccc(N3CCc4c(nc(OC[C@@H]5CCCN5C)nc4N4C[C@H]5CC[C@@H](C4)N5)C3)c12` [Example 52, 4-((1R,5S)-3,8-diazabicyclo[3.2.1]octan-3-yl)-7-(8-methylnaphthalen-1-yl)-2-(((S)-1-methylpyrrolidin-2-yl)methoxy)-5,6,7,8-tetrahydropyrido[3,4-d]pyrimidine]: the 50% inhibitory concentration (IC50) on KRas G12D [1] was found to be 0.361 µM; in test [3] it was 14.9 µM. The affinity at KRas G12D [2], expressed as Kd, was 250 µM.
With `CN1CCC[C@H]1COc1nc2c(c(N3C[C@H]4CC[C@@H](C3)N4)n1)CCN(c1cccc3cccc(CCC#N)c13)C2` [Example 80, 3-(8-(4-((1R,5S)-3,8-diazabicyclo[3.2.1]octan-3-yl)-2-(((S)-1-methylpyrrolidin-2-yl)methoxy)-5,8-dihydropyrido[3,4-d]pyrimidin-7(6H)-yl)naphthalen-1-yl)propanenitrile], binding on KRas G12D [2] was characterised by a dissociation constant (Kd) of 0.617 µM. In test [3], this molecule came in with a 50% inhibitory concentration (IC50) of 11.1 µM.
In the same order, the values of `CC(Oc1nc2c(c(N3C[C@H]4CC[C@@H](C3)N4)n1)CCN(c1cc(O)c(Cl)c3ccccc13)C2)[C@@H]1CCCN1` (stereo partly drawn) [Example 26, 4-(4-((1R,5S)-3,8-diazabicyclo[3.2.1]octan-3-yl)-2-(1-((S)-pyrrolidin-2-yl)ethoxy)-5,8-dihydropyrido[3,4-d]pyrimidin-7(6H)-yl)-1-chloronaphthalen-2-ol] are 0.325 µM and above 16.7 µM.
For `CN1CCC[C@H]1COc1nc2c(c(N3C[C@H]4CC[C@@H](C3)N4)n1)CCN(c1cccc3cccc(CCCCO)c13)C2` [Example 84, 4-(8-(4-((1R,5S)-3,8-diazabicyclo[3.2.1]octan-3-yl)-2-(((S)-1-methylpyrrolidin-2-yl)methoxy)-5,8-dihydropyrido[3,4-d]pyrimidin-7(6H)-yl)naphthalen-1-yl)butan-1-ol], on KRas G12D [1], the IC50 came out at 3.69 µM. At KRas G12D [2], this molecule had a Kd of 8.71 µM.
On the same counts, the results for `CN1CCC[C@H]1COc1nc2c(c(N3C[C@H]4CC[C@@H](C3)N4)n1)CCN(c1cccc3ccccc13)C2` [Example 70, 4-((1R,5S)-3,8-diazabicyclo[3.2.1]octan-3-yl)-2-(((S)-1-methylpyrrolidin-2-yl)methoxy)-7-(naphthalen-1-yl)-5,6,7,8-tetrahydropyrido[3,4-d]pyrimidine] are 1.12 µM and 2.1 µM.
In the same order, the values of `Cc1ccc2[nH]ncc2c1N1CCc2c(nc(OC[C@@H]3CCCN3C)nc2N2C[C@H]3CC[C@@H](C2)N3)C1` [Example 3, 4-((1R,5S)-3,8-diazabicyclo[3.2.1]octan-3-yl)-7-(5-methyl-1H-indazol-4-yl)-2-(((S)-1-methylpyrrolidin-2-yl)methoxy)-5,6,7,8-tetrahydropyrido[3,4-d]pyrimidine] are 1.32 µM and 6.37 µM.
As for `CN1CCC[C@H]1COc1nc2c(c(N3C[C@H]4C/C(=C/C#N)[C@@H](C3)N4)n1)CCN(c1cccc3cccc(Cl)c13)C2` (single isomer, unassigned) [Example 90], at KRas G12D [1], the IC50 came to 1.46 µM. This molecule had a Kd at KRas G12D [2] of 0.938 µM.
In the same order, the values of `CN1CCC[C@H]1COc1nc2c(c(N3C[C@H]4CC[C@@H](C3)N4)n1)CCN(c1cncc3ccccc13)C2` [Example 57, 4-((1R,5S)-3,8-diazabicyclo[3.2.1]octan-3-yl)-7-(isoquinolin-4-yl)-2-(((S)-1-methylpyrrolidin-2-yl)methoxy)-5,6,7,8-tetrahydropyrido[3,4-d]pyrimidine] are above 10 µM and 98.5 µM.
For the molecule `Cc1ccc2cccc(N3CCc4c(nc(OC[C@@H]5CCCN5C)nc4N4C[C@H]5CC[C@@H](C4)N5)C3)c2c1` [Example 110, 4-((1R,5S)-3,8-diazabicyclo[3.2.1]octan-3-yl)-7-(7-methylnaphthalen-1-yl)-2-(((S)-1-methylpyrrolidin-2-yl)methoxy)-5,6,7,8-tetrahydropyrido[3,4-d]pyrimidine], the IC50 at KRas G12D [1] is 3.17 µM. For the same molecule, the Kd at KRas G12D [2] is 3.23 µM.
In the same order, the values of `CN1CCC[C@H]1COc1nc2c(c(N3C[C@H]4CC[C@@H](C3)N4)n1)CCN(c1cccc3cccc(CCCO)c13)C2` [Example 79, 3-(8-(4-((1R,5S)-3,8-diazabicyclo[3.2.1]octan-3-yl)-2-(((S)-1-methylpyrrolidin-2-yl)methoxy)-5,8-dihydropyrido[3,4-d]pyrimidin-7(6H)-yl)naphthalen-1-yl)propan-1-ol] are 0.486 µM and 1.86 µM.
Consider `CN1CCC[C@H]1COc1nc2c(c(N3C[C@H]4CC[C@@H](C3)N4)n1)CCN(c1c(O)cccc1F)C2` [Example 77, 2-(4-((1R,5S)-3,8-diazabicyclo[3.2.1]octan-3-yl)-2-(((S)-1-methylpyrrolidin-2-yl)methoxy)-5,8-dihydropyrido[3,4-d]pyrimidin-7(6H)-yl)-3-fluorophenol], for which, on KRas G12D [1], the IC50 was above 10 µM. The molecule further came in with a Kd at KRas G12D [2] of 264 µM.
At KRas G12D [1], `O[C@@H]1C[C@@H]2CN(c3nc(OCCC(F)(F)F)nc4c3CCN(c3cccc5cccc(Cl)c35)C4)C[C@H]1N2` [Example 86, (1R,5R,6R)-3-(7-(8-chloronaphthalen-1-yl)-2-(3,3,3-trifluoropropoxy)-5,6,7,8-tetrahydropyrido[3,4-d]pyrimidin-4-yl)-3,8-diazabicyclo[3.2.1]octan-6-ol] came in with an IC50 of 2.9 µM. This molecule also showed a Kd at KRas G12D [2] of 33.2 µM.
Take `CN1CCC[C@H]1COc1nc2c(c(N3C[C@H]4CC[C@@H](C3)N4)n1)CCN(c1nc(N)nc3ccccc13)C2` [Example 59, 4-(4-((1R,5S)-3,8-diazabicyclo[3.2.1]octan-3-yl)-2-(((S)-1-methylpyrrolidin-2-yl)methoxy)-5,8-dihydropyrido[3,4-d]pyrimidin-7(6H)-yl)quinazolin-2-amine]: on KRas G12D [1], the IC50 was found to be 7.5 µM. The molecule further returned a Kd at KRas G12D [2] of 598 µM.
In the same order, the values of `CC1CCCc2cccc(N3CCc4c(nc(OC[C@@H]5CCCN5C)nc4N4C[C@H]5CC[C@@H](C4)N5)C3)c21` (stereo partly drawn) [Example 82, 4-((1R,5S)-3,8-diazabicyclo[3.2.1]octan-3-yl)-7-(8-methyl-5,6,7,8-tetrahydronaphthalen-1-yl)-2-(((S)-1-methylpyrrolidin-2-yl)methoxy)-5,6,7,8-tetrahydropyrido[3,4-d]pyrimidine] are 0.061 µM and 0.149 µM.
In the same order, the values of `COc1nc2c(c(N3C[C@H]4CC[C@@H](C3)N4)n1)CCN(c1cccc3cccc(C)c13)C2` [Example 22, 4-((1R,5S)-3,8-diazabicyclo[3.2.1]octan-3-yl)-2-methoxy-7-(8-methylnaphthalen-1-yl)-5,6,7,8-tetrahydropyrido[3,4-d]pyrimidine] are 7.86 µM and 302 µM.
`COC1CC(N2CCc3c(nc(OC[C@@H]4CCCN4C)nc3N3C[C@H]4CC[C@@H](C3)N4)C2)c2ccccc21` (stereo partly drawn) [Example 36, 4-((1R,5S)-3,8-diazabicyclo[3.2.1]octan-3-yl)-7-(3-methoxy-2,3-dihydro-1H-inden-1-yl)-2-(((S)-1-methylpyrrolidin-2-yl)methoxy)-5,6,7,8-tetrahydropyrido[3,4-d]pyrimidine] registered an IC50 on KRas G12D [1] above 10 µM. Also, binding on KRas G12D [2] was characterised by a dissociation constant (Kd) of 24.3 µM.
In the same order, the values of `CN1CCC[C@H]1COc1nc2c(c(N3C[C@H]4CC[C@@H](C3)N4)n1)CCN(c1c(F)c(O)c(F)c3ccccc13)C2` [Example 25, 4-(4-((1R,5S)-3,8-diazabicyclo[3.2.1]octan-3-yl)-2-(((S)-1-methylpyrrolidin-2-yl)methoxy)-5,8-dihydropyrido[3,4-d]pyrimidin-7(6H)-yl)-1,3-difluoronaphthalen-2-ol] are 6.79 µM and 0.847 µM.
On the same counts, the results for `CN1CCC[C@H]1COc1nc2c(c(N3C[C@H]4CC[C@@H](C3)N4)n1)CCN(c1cccc3cccc(CCCC#N)c13)C2` [Example 83, 4-(8-(4-((1R,5S)-3,8-diazabicyclo[3.2.1]octan-3-yl)-2-(((S)-1-methylpyrrolidin-2-yl)methoxy)-5,8-dihydropyrido[3,4-d]pyrimidin-7(6H)-yl)naphthalen-1-yl)butanenitrile] are 6.57 µM and 19.9 µM.

Broadly, the IC50 is the concentration that gives 50% inhibition. A higher IC50 goes with a need for much substance. One may read the Kd as the equilibrium constant for the complex coming apart. Low values mean tighter binding, high ones weaker binding.

Values taken from US12686692B2, “KRas G12D inhibitors” (Mirati Therapeutics, Inc., priority 2020, dated 2026).
